Source: patent US20250032623A1, “HETEROBIFUNCTIONAL COMPOUNDS AND THEIR USE IN TREATING DISEASE” (HALDA THERAPEUTICS OPCO, INC., priority 2021, published 2025)

What was measured:
HeLa cells = experiment: Cellular growth inhibition assay (CellTiter-Glo), HeLa cells; type: cell-based; conditions: Homo sapiens, 72 h, three days compound treatment, CellTiter-Glo 2.0, read-out: CTG HELA GI50
Procedure, shortened: (§1)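 GI50 derived by four-parameter regression of luminescence (CellTiter-Glo 2.0) at Day 0 and Day 3, normalized to DMSO wells. Cells (HeLa, HEK293; 500/well, DMEM plus 10% FBS) were dosed with compound dilutions 24 h post-seeding and exposed for three days at 37 °C.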

HEK293 cells = experiment: Cellular growth inhibition assay (CellTiter-Glo), HEK293 cells; type: cell-based; conditions: Homo sapiens, 72 h, three days compound treatment, CellTiter-Glo 2.0, read-out: CTG HEK293 GI50
Procedure, shortened: as §1

EGFR = molecular target: T1, EGFR (Homo sapiens, UniProt P00533); experiment: KdELECT binding assay, EGFR
T1 construct: purchased
T1 sequence (P00533 25-1210): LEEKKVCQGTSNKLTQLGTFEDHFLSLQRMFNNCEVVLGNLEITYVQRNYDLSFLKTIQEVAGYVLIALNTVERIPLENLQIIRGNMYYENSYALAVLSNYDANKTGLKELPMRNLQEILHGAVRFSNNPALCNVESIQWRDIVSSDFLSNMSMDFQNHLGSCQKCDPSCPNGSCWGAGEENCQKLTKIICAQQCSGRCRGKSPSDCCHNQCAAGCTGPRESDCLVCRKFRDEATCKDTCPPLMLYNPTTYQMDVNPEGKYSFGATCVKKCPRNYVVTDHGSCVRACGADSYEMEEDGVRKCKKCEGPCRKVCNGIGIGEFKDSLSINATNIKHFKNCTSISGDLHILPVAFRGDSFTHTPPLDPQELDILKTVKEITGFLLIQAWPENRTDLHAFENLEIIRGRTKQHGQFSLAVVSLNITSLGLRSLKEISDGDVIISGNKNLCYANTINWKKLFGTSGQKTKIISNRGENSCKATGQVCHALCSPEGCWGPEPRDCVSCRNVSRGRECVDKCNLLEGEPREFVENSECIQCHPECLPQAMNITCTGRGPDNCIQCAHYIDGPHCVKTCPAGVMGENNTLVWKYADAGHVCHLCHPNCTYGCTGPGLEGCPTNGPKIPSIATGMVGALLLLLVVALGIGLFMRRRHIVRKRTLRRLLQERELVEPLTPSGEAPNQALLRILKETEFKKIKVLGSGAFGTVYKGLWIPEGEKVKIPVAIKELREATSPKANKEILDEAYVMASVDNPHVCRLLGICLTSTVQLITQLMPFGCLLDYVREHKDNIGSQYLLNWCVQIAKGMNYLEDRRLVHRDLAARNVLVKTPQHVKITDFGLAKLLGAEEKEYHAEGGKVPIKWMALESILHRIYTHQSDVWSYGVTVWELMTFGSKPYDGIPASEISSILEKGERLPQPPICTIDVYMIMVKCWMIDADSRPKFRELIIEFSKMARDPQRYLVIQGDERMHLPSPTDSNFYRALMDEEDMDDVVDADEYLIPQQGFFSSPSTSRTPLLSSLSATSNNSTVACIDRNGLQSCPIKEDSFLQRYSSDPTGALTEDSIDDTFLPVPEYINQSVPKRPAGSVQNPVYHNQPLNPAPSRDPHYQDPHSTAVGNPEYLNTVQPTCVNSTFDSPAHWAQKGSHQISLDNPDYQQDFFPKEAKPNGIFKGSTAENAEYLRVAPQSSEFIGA
Method: Exemplary compounds were tested for ability to bind to EGFR.
(§2) Compounds were tested using a KdELECT assay. Kinase-tagged T7 phage strains were prepared in an E. coli host derived from the BL21 strain. E. coli were grown to log-phase and infected with T7 phage and incubated with shaking at 32° C. until lysis. The lysates were centrifuged and filtered to remove cell debris. The remaining kinases were produced in HEK-293 cells and subsequently tagged with DNA for qPCR detection. Streptavidin-coated magnetic beads were treated with biotinylated small molecule ligands for 30 minutes at room temperature to generate affinity resins for kinase assays. The liganded beads were blocked with excess biotin and washed with blocking buffer (SeaBlock (Pierce), 1% BSA, 0.05% Tween 20, 1 mM DTT) to remove unbound ligand and to reduce non-specific binding. Binding reactions were assembled by combining kinases, liganded affinity beads, and test compounds in 1× binding buffer (20% SeaBlock, 0.17×PBS, 0.05% Tween 20, 6 mM DTT). Test compounds were prepared as 111× stocks in 100% DMSO. Kd values were determined using an 11-point 3-fold compound dilution series with three DMSO control points. All compounds for Kd measurements are distributed by acoustic transfer (non-contact dispensing) in 100% DMSO. The compounds were then diluted directly into the assays such that the final concentration of DMSO was 0.9%. All reactions performed in polypropylene 384-well plate. Each was a final volume of 0.02 mL. The assay plates were incubated at room temperature with shaking for 1 hour and the affinity beads were washed with wash buffer (1× PBS, 0.05% Tween 20). The beads were then re-suspended in elution buffer (1× PBS, 0.05% Tween 20, 0.5 μM nonbiotinylated affinity ligand) and incubated at room temperature with shaking for 30 minutes. The kinase concentration in the eluates was measured by qPCR.

[1] = molecular target: T2, EGFR T790M, L858R (amino acids 669-1011 Accession Number NP_005219.2) (Homo sapiens, UniProt P00533, L858R/T790M); experiment: KdELECT binding assay (Eurofins Discovery), EGFR T790M, L858R; conditions: read-out: EGFR DM Kd
T2 construct: purchased Eurofins Discovery; host or cells: mammalian cells (HEK-293)
T2 sequence (P00533 669-1011 T790M/L858R): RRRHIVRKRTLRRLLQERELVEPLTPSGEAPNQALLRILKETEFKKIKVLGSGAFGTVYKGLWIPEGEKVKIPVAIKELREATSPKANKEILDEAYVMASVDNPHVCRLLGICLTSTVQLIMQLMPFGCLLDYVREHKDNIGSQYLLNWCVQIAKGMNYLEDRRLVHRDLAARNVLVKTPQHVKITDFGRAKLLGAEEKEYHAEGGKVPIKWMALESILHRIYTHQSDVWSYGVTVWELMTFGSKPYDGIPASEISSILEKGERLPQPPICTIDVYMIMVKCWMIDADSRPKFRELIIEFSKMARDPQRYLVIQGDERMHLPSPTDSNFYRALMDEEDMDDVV
Method: (§3) Exemplary compounds were tested for ability to bind to EGFR WT (amino acids 669-1011, Accession Number NP_005219.2) or EGFR T790M, L858R (amino acids 669-1011 Accession Number NP_005219.2) expressed from bacteria or mammalian cells, respectively. Compounds were tested using the KdELECT assay at Eurofins Discovery.
as §2, with “Kinase-tagged” for “Compounds were tested using a KdELECT assay. Kinase-tagged”

[2] = molecular target: T3, EGFR WT (amino acids 669-1011, Accession Number NP_005219.2) (Homo sapiens, UniProt P00533); experiment: KdELECT binding assay (Eurofins Discovery), EGFR WT
T3 construct: purchased Eurofins Discovery; host or cells: bacteria (E. coli, BL21-derived, T7 phage)
T3 sequence (P00533 669-1011): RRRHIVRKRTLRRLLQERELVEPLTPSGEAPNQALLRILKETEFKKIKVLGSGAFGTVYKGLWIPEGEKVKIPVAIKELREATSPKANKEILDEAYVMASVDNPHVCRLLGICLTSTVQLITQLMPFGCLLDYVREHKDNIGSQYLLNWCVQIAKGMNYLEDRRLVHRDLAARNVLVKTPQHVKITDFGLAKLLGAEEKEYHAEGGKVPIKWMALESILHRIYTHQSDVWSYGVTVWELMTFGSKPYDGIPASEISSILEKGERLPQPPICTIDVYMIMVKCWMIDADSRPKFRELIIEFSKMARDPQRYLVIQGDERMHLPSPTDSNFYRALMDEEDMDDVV
Method: as §3
as §2, with “Kinase-tagged” for “Compounds were tested using a KdELECT assay. Kinase-tagged”

Row | SMILES | GI50 (HeLa cells) [µM] | GI50 (HEK293 cells) [µM] | Kd (EGFR) [µM] | Kd [1] [µM] | Kd [2] [µM]
1 | C=CC(=O)Nc1cc(Nc2nccc(-c3cn(C)c4ccccc34)n2)c(OC)cc1N(C)CCN(C)CCOCCOCCOCCOCCOCCOCCOCCOCCON(C)C(=O)N1N=C(c2cc(F)ccc2F)SC1(CCCN)c1ccccc1 (stereo not shown) [Compound I-69] | < 0.5 | 0.5 to 1.5 | < 0.05 | < 0.05 | 0.5 to 2.5
2 | C=CC(=O)Nc1cc(Nc2nccc(-c3cn(C)c4ccccc34)n2)c(OC)cc1N(C)CCN(C)CCCN1CCN(CCCNC(=O)c2ccc(Nc3ncc4c(n3)N(C3CCCC3)[C@H](CC)C(=O)N4C)c(OC)c2)CC1 [Compound I-122, 4-[(8-cyclopentyl-7-ethyl-5-methyl-6-oxo-7H-pteridin-2-yl)amino]-3-methoxy-N-[3-[4-[3-[2-[5-methoxy-N-methyl-4-[[4-(1-methylindol-3-yl)pyrimidin-2-yl]amino]-2-(prop-2-enoylamino)anilino]ethyl-methyl-amino]propyl]piperazin-1-yl]propyl]benzamide] | 1.5 to 5 | 1.5 to 5 | 0.05 to 0.5 | < 0.05 | 0.5 to 2.5
3 | CC[C@@H]1C(=O)N(C)c2cnc(Nc3ccc(C(=O)NCCOCCOCCOCCOCCN(C)C/C=C/C(=O)Nc4cc(Nc5nccc(-c6cn(C)c7ccccc67)n5)c(OC)cc4N(C)CCN(C)C)cc3OC)nc2N1C1CCCC1 [Compound I-123, 4-[[(7R)-8-cyclopentyl-7-ethyl-5-methyl-6-oxo-7H-pteridin-2-yl]amino]-N-[2-[2-1[2-[2-[2-[[(E)-4-[2-1[2-(dimethylamino)ethyl-methyl-amino]-4-methoxy-5-[1[4-(1-methylindol-3-yl)pyrimidin-2-yl]amino]anilino]-4-oxo-but-2-enyl]-methyl-amino]ethoxy]ethoxy]ethoxy]ethoxy]ethyl]-3-methoxy-benzamide] | 0.5 to 1.5 | 0.5 to 1.5 | > 2.5 | < 0.05 | > 2.5
4 | C=CC(=O)N[C@@H]1CN(c2nc(Nc3cn(CCOCCOCCOCCOCCNC(=O)c4ccc(Nc5ncc6c(n5)N(C5CCCC5)[C@H](CC)C(=O)N6C)c(OC)c4)nc3OC)c3ncn(C)c3n2)C[C@H]1F [Compound I-125] | > 5 | 1.5 to 5 | 0.05 to 0.5 | < 0.05 | 0.05 to 0.5
5 | CCC1C(=O)N(C)c2cnc(Nc3ccc(C(=O)NCCOCCOCCOCCOCCN(C)CC=CC(=O)NC4CN(c5nc(Nc6cn(C)nc6OC)c6ncn(C)c6n5)CC4F)cc3OC)nc2N1C1CCCC1 [Compound I-126, 4-[[(7R)-8-cyclopentyl-7-ethyl-5-methyl-6-oxo-7H-pteridin-2-yl]amino]-N-[2-[2-[2-[2-[2-[[(E)-4-[ [(3R,4R)-4-fluoro-1-1[6-1[(3-methoxy-1-methyl-pyrazol-4-yl)amino]-9-methyl-purin-2-yl]pyrrolidin-3-yl]amino]-4-oxo-but-2-enyl]-methyl-amino]ethoxy]ethoxy]ethoxy]ethoxy]ethyl]-3-methoxy-benzamide] | 0.5 to 1.5 | < 0.5 | 0.5 to 2.5 | 0.05 to 0.5 | 0.5 to 2.5
6 | C=CC(=O)Nc1cc(Nc2nccc(-c3cn(C)c4ccccc34)n2)c(OC)cc1N(C)CCN(C)CCOCCON(C)C(=O)N1N=C(c2cc(F)ccc2F)S[C@@]1(CCCN)c1ccccc1 [Compound I-127, (2S)-2-(3-aminopropyl)-5-(2,5-difluorophenyl)-N-[2-[2-[2-[5-methoxy-N-methyl-4-[[4-(1-methylindol-3-yl)pyrimidin-2-yl]amino]-2-(prop-2-enoylamino)anilino]ethyl-methyl-amino]ethoxy]ethoxy]-N-methyl-2-phenyl-1,3,4-thiadiazole-3-carboxamide] | 1.5 to 5 | 0.5 to 1.5 | 0.05 to 0.5 | < 0.05 | 0.05 to 0.5
7 | C=CC(=O)N[C@@H]1CN(c2nc(Nc3cn(CCOCCOCCNC(=O)c4ccc(Nc5ncc6c(n5)N(C5CCCC5)[C@H](CC)C(=O)N6C)c(OC)c4)nc3OC)c3ncn(C)c3n2)C[C@H]1F [Compound I-128, 4-[[(7R)-8-cyclopentyl-7-ethyl-5-methyl-6-oxo-7H-pteridin-2-yl]amino]-N-[2[22-[2-[4-[[2-[(3R,4R)-3-fluoro-4-(prop-2-enoylamino)pyrrolidin-1-yl]-9-methyl-purin-6-yl]amino]-3-methoxy-pyrazol-1-yl]ethoxy]ethoxy]ethyl]-3-methoxy-benzamide] | 0.5 to 1.5 | 0.5 to 1.5 | 0.05 to 0.5 | < 0.05 | 0.05 to 0.5
8 | CC[C@@H]1C(=O)N(C)c2cnc(Nc3ccc(C(=O)NCCOCCOCCOCCOCCN(C)C/C=C/C(=O)N[C@@H]4CN(c5nc(Nc6cn(C)nc6OC)c6ncn(C)c6n5)C[C@H]4F)cc3OC)nc2N1C1CCCC1 [Compound I-129, 4-[[(7R)-8-cyclopentyl-7-ethyl-5-methyl-6-oxo-7H-pteridin-2-yl]amino]-N-[2-[2-[2-[2-[2-[[(E)-4-[[(3R,4R)-4-fluoro-1-[6-[(3-methoxy-1-methyl-pyrazol-4-yl)amino]-9-methyl-purin-2-yl]pyrrolidin-3-yl]amino]-4-oxo-but-2-enyl]-methyl-amino]ethoxy]ethoxy]ethoxy]ethoxy]ethyl]-3-methoxy-benzamide] | 0.5 to 1.5 | 0.5 to 1.5 | 0.5 to 2.5 | 0.05 to 0.5 | 0.5 to 2.5
9 | C=CC(=O)Nc1cc(Nc2nccc(-c3cn(C)c4ccccc34)n2)c(OC)cc1N(C)CCN(C)CCCON(C)C(=O)N1N=C(c2cc(F)ccc2F)S[C@@]1(CCCN)c1ccccc1 [Compound I-130, (2S)-2-(3-aminopropyl)-5-(2,5-difluorophenyl)-N-[3-[2-[5-methoxy-N-methyl-4-[[4-(1-methylindol-3-yl)pyrimidin-2-yl]amino]-2-(prop-2-enoylamino)anilino]ethyl-methyl-amino]propoxy]-N-methyl-2-phenyl-1,3,4-thiadiazole-3-carboxamide] | 0.5 to 1.5 | 0.5 to 1.5 | 0.5 to 2.5 | < 0.05 | 0.5 to 2.5
10 | C=CC(=O)N[C@@H]1CN(c2nc(Nc3cn(CCCNC(=O)c4ccc(Nc5ncc6c(n5)N(C5CCCC5)[C@H](CC)C(=O)N6C)c(OC)c4)nc3OC)c3ncn(C)c3n2)C[C@H]1F [Compound I-131, 4-[(8-cyclopentyl-7-ethyl-5-methyl-6-oxo-7H-pteridin-2-yl)amino]-N-[3-[4-[[2-[(3R,4R)-3-fluoro-4-(prop-2-enoylamino)pyrrolidin-1-yl]-9-methyl-purin-6-yl]amino]-3-methoxy-pyrazol-1-yl]propyl]-3-methoxy-benzamide] | 0.5 to 1.5 | 0.5 to 1.5 | 0.5 to 2.5 | < 0.05 | 0.5 to 2.5
11 | C=CC(=O)Nc1cc(Nc2nccc(-c3cn(C)c4ccccc34)n2)c(OC)cc1N(C)CCN(C)CCOCCOCCOCCOCCOCCOCCOc1ccc(CNc2cc(N3CCCC[C@H]3CCO)nc3c(CC)cnn23)cn1 [Compound I-133] | < 0.5 | < 0.5 | 0.5 to 2.5 | < 0.05 | 0.5 to 2.5
